Laboratory results: patent publication US11076597B2, “High stress resistant plant growth regulator and preparation method and use thereof” (SHANGHAI INSTITUTES FOR BIOLOGICAL SCIENCES, CHINESE …, priority 2015, dated 2021)
“Also recorded” adds a separate entry of the source.

What was measured:
[1] = target: T1, PYL2 receptor-HAB1 protein phosphatase complex (Arabidopsis thaliana, UniProt O80992); test: AlphaScreen assay, PYL2 receptor binding to HAB1; format: biochemical; conditions: fraction of the EC50 of ABA; FIG. 2c, 2e-2g
T1 construct: made in house; host or cells: E. coli BL21 (DE3)
T1 sequence (O80992 14-188): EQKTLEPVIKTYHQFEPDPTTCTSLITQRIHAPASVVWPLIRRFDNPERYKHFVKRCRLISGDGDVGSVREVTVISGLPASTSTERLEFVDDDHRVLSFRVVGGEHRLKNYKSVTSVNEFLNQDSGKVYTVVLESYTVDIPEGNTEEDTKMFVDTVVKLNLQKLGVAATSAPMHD
T1 sequence (Q9CAJ0 172-511 partner limits assumed): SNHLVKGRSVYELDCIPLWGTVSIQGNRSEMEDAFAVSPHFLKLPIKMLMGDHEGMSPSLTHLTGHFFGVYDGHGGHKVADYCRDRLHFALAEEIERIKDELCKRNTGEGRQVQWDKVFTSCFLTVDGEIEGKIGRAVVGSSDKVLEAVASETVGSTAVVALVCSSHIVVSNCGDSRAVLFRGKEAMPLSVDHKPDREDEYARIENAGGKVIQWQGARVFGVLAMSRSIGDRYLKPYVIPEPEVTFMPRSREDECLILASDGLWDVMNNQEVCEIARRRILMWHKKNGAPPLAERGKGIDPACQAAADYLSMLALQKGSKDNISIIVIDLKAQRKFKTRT
Procedure: The AlphaScreen kit (available from Perkin Elmer) was used, and the method was as follows: a 10× buffer (50 mM MOPS, pH 7.4, 50 mM NaF, 50 mM CHAPS, 0.1 mg/ml bovine serum albumin) diluted at 1:10, each of 100 nM HAB1 with Biotin tag sequence and PYR1/PYL1/PYL2/PYL7/GmPYL6/OsPYL2 protein with dual tags of 6×His and SUMO sequences, corresponding concentrations of (+)-ABA/0224/0304/0706/0708/0713/0715/0428/NC0F4, and 5 μg/ml donor beads and acceptor beads (available from Perkin Elmer) were contained in 150 μl of experimental system. After incubating for 1.5 hours at room temperature in the dark, it was placed into an Envision Plate Reader (available from Perkin Elmer) under the programmed AlphaScreen procedure for readings.
AlphaScreen technology was used to test the ability of the compounds of the present invention to promote PYL receptor binding to PP2C protein phosphatase (HAB1).

[2] = target: T2, PYL2 receptor-HAB1 complex (Arabidopsis thaliana, UniProt O80992); test: HAB1 phosphatase activity assay (SnRK2.6 phosphorylated polypeptide as substrate); format: biochemical; conditions: FIG. 1a-1g; 100 nM HAB1, 500 nM PYL2
T2 construct: made in house; host or cells: E. coli BL21 (DE3)
T2 sequence (O80992 14-188): T1 sequence (O80992 14-188)
T2 sequence (Q9CAJ0 172-511 partner limits assumed): T1 sequence (Q9CAJ0 172-511 partner limits assumed)
Procedure: 50 mM imidazole, pH 7.2, 5 mM MgCl2, 0.1% β-mercaptoethanol, 0.5 μg·ml^−1 BSA, 100 nM HAB1 protein with a Biotin tag sequence, 500 nM PYL2 receptor protein with 6×His-SUMO dual tag sequence and the corresponding concentration of (+)-ABA/0224/0304/0706/0708/0713/0715/1028c/0428/1022B/NC0F4 were contained in the reaction system. The reaction system was incubated at room temperature for 30 minutes, followed by a further reaction for 30 minutes after adding an 11-amino acid phosphorylated polypeptide as a substrate. The phosphorylated polypeptide is amino acid 170-180 of SnRK2.6 protein kinase, wherein phosphorylated serine at position 175 (with a sequence of HSQPKpSTVGTP, purchased from Kingsley Company) was a known HAB1 dephosphorylation target site. After 30 minutes, chromogenic reagent (purchased from BioVision) was added and the absorbance at 650 nm was read on a microplate reader (Molecular Devices).

soybean = test: Soil drought experiment, soybean; format: in vivo
Procedure: Soybean, cotton and wheat for leaf transpiration experiments were used simultaneously for soil drought experiments, each pot was filled with the same weight of soil to reduce experimental error. All the soybean plants were subjected to a long-day culture at 26° C. 14 days after sowing, watering was stopped and the plants with the consistent growth condition were selected for drought treatment. At the start of the drought, a solution containing 0.1% Tween-20 and 20 μM (+)-ABA/0224/0304 or 0.1% Tween-20 and 0.05% DMSO (control) was sprayed onto the leaf surface once with a spray amount of 4 ml solution/pot. Meanwhile, the position of the pot was changed and re-watered 6 days after the drought, and the photos were taken 1 day after re-watering. The drought experiment of cotton was similar to that of soybeans, watering was stopped 25 days after sowing, the plants with the consistent growth condition were selected for drought treatment. At the start of the drought, a solution containing 0.1% Tween-20 and 20 μM (+)-ABA/0224 or 0.1% Tween-20 and 0.05% DMSO (control) was sprayed onto the leaf surface once with a spray amount of 4 ml solution/pot, and then sprayed once every 3 days. Meanwhile, the position of the pot was changed and re-watered 6 days after the drought, and the photos were taken before re-watering and 1 day after re-watering. In the drought experiment of wheat, the wheat with the consistent growth condition 16 days after sowing was selected for the drought treatment, at the start of the drought, a solution with 0.1% Tween-20 and 100 μM (+)-ABA/0224 or 0.1% Tween-20 and 0.05% DMSO (control) was sprayed once, and then sprayed once every 3 days with a spray amount of 4 ml/pot. Meanwhile, the position of the pot was changed and the photos were taken 6 days after the drought.
Soil drought experiments used for compound 0428 on soybean and maize were similar to that used for compound 0224 on soybeans, with only one plant contained in each pot. All soybean plants were long-day cultured at 26° C. […]

[3] = 20 μM sprayed once, re-watering after 6 days of drought, FIG. 8

| EC50 value with PYL2 receptor-HAB1 complex as fraction of that of ABA [1] | Compound | inhibition of HAB1 protein phosphatase activity by promoting binding between PYL2 receptor and HAB1 [2] | growth after drought and re-watering (soybean; [3]) | growth after drought and re-watering (soybean; 50 μM sprayed once a day for two days, 9 days of drought, FIG. 14a) |
| --- | --- | --- | --- | --- |
| 1/29 | CCCN1C(=O)OC(C)c2cc(NS(=O)(=O)Cc3c(F)c(F)c(C)c(F)c3F)ccc21 (stereo not shown) [Compound 0224] | inhibiting the activity of protein phosphatase HAB1; also recorded: inhibiting the dephosphorylation effect of HAB1 on SnRK2.6 phosphorylated polypeptide | significantly better than that of the control group (DMSO) or that of the soybean treated with same concentration of ABA; also recorded: significantly better growth after re-watering than that in the DMSO-sprayed control group and the plants sprayed with the same concentration of ABA |  |
| 1/15 | CCCN1C(=O)OC(C)(C)c2cc(NS(=O)(=O)Cc3c(F)c(F)c(C)c(F)c3F)ccc21 [Compound 0304] | inhibiting the activity of protein phosphatase HAB1; also recorded: inhibiting the dephosphorylation effect of HAB1 on SnRK2.6 phosphorylated polypeptide | significantly better than that of the control group (DMSO) or that of the soybean treated with same concentration of ABA; also recorded: significantly better growth after re-watering than that in the DMSO-sprayed control group and the plants sprayed with the same concentration of ABA |  |
| about ⅛ | CCCN1C(=O)OCc2cc(NS(=O)(=O)Cc3c(F)c(F)c(C)c(F)c3F)ccc21 [Compound 0428] | inhibiting the activity of protein phosphatase HAB1; also recorded: inhibiting the dephosphorylation effect of HAB1 on SnRK2.6 phosphorylated polypeptide |  | significantly better growth after re-watering than that in the DMSO-sprayed control group |
| ⅕-⅛ | CCN1C(=O)OC(C)c2cc(NS(=O)(=O)Cc3c(F)c(F)c(C)c(F)c3F)ccc21 (stereo not shown) [Compound 0706] | inhibiting the activity of protein phosphatase HAB1; also recorded: inhibiting the dephosphorylation effect of HAB1 on SnRK2.6 phosphorylated polypeptide |  |  |
| ⅕-⅛ | Cc1c(F)c(F)c(CS(=O)(=O)Nc2ccc3c(c2)C(C)OC(=O)N3CCCF)c(F)c1F (stereo not shown) [Compound 0715] | inhibiting the activity of protein phosphatase HAB1; also recorded: inhibiting the dephosphorylation effect of HAB1 on SnRK2.6 phosphorylated polypeptide |  |  |
